Test results published in patent US20220356174A1, “PYRIDIN-2-ONE COMPOUNDS USEFUL AS SMARCA2 ANTAGONISTS” (Epizyme, Inc., priority 2018, published 2022).
Where two headings read alike, the source gives them in different places.

Key:
FL-SMARCA4 = FL-SMARCA4 (Homo sapiens, UniProt P51532); experiment: SMARCA4 ATPase activity assay (ADP-Glo, chicken mononucleosome substrate)
[1] = target: T1, FL-SMARCA2 (full-length human SMARCA2 isoform 1) (Homo sapiens, UniProt P51531); experiment: SMARCA2 ATPase activity assay (ADP-Glo, chicken mononucleosome substrate); type: biochemical; conditions: ATP 250 uM
T1 construct: FLAG tag (YKDDDDK) (C); made in house; host or cells: Sf21 insect cells (baculovirus, pFastBacI)
T1 sequence (P51531 with tags, fused parts or gaps): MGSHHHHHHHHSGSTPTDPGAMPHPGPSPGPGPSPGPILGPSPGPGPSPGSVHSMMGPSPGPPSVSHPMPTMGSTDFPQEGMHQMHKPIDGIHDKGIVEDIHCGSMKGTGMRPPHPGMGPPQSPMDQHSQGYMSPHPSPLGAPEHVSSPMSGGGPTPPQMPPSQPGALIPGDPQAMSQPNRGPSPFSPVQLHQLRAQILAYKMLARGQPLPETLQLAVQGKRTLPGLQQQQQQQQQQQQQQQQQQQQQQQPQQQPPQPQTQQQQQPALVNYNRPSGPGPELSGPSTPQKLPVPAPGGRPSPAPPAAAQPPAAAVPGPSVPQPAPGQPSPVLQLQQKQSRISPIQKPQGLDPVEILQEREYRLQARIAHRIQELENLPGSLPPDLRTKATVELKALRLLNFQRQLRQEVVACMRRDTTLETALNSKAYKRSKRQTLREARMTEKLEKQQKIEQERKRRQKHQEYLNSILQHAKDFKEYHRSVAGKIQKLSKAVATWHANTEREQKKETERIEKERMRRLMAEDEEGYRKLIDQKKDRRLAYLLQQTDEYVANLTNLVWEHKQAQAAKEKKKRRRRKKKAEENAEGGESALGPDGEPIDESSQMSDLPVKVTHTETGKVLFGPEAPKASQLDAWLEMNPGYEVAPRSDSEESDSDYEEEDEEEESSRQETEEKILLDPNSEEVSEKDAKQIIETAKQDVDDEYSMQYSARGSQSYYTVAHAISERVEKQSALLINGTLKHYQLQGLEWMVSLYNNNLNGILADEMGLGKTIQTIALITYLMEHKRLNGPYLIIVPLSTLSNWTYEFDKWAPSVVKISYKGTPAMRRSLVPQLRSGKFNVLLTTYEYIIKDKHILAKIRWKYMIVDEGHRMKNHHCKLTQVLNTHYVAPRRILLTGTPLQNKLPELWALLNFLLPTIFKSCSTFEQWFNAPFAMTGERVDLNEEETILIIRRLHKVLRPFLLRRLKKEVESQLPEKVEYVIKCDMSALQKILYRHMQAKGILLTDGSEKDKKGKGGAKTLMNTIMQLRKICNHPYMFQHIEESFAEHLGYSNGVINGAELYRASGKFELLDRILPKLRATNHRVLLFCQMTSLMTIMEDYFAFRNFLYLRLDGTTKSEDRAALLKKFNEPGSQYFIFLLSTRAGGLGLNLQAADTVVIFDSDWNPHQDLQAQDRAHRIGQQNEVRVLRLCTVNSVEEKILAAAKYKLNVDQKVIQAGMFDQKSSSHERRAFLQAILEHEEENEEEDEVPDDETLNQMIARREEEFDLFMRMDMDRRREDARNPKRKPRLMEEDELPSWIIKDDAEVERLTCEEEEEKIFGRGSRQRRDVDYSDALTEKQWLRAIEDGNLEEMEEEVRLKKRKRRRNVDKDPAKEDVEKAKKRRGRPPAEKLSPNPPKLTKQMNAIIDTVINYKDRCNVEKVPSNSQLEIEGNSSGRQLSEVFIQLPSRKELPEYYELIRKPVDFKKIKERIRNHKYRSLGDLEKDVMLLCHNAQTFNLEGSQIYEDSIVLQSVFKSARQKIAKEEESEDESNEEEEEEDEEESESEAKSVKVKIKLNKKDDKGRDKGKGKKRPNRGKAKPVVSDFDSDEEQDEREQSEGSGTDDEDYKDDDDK

[2] = FL-SMARCA4 IC50, Table 3a.2, SMARCA4 5 nM, ATP 250 uM, mononucleosome 10 nM
[3] = Table 3a.1, SMARCA2 5 nM, mononucleosome 10 nM
[4] = FL-SMARCA4 IC50, Table 3.2, ATPase assay, enzyme 5 nM, ATP 250 uM, chicken mononucleosome 10 nM, 30 min preincubation
[5] = Table 3.1, ATPase assay, enzyme 5 nM, chicken mononucleosome 10 nM, 30 min preincubation
[6] = FL-SMARCA4 IC>50, Table 3c.2, ATPase assay, enzyme 5 nM, ATP 250 uM, chicken mononucleosome 10 nM, 30 min preincubation
[7] = Table 3c.1, ATPase assay, enzyme 5 nM, chicken mononucleosome 10 nM, 30 min preincubation
[8] = Table 3d.1, ATPase assay, enzyme 5 nM, chicken mononucleosome 10 nM, 30 min preincubation, read-out: FL-SMARCA2 IC>50

Chain of FL-SMARCA4 (P51532 whole entry, canonical isoform): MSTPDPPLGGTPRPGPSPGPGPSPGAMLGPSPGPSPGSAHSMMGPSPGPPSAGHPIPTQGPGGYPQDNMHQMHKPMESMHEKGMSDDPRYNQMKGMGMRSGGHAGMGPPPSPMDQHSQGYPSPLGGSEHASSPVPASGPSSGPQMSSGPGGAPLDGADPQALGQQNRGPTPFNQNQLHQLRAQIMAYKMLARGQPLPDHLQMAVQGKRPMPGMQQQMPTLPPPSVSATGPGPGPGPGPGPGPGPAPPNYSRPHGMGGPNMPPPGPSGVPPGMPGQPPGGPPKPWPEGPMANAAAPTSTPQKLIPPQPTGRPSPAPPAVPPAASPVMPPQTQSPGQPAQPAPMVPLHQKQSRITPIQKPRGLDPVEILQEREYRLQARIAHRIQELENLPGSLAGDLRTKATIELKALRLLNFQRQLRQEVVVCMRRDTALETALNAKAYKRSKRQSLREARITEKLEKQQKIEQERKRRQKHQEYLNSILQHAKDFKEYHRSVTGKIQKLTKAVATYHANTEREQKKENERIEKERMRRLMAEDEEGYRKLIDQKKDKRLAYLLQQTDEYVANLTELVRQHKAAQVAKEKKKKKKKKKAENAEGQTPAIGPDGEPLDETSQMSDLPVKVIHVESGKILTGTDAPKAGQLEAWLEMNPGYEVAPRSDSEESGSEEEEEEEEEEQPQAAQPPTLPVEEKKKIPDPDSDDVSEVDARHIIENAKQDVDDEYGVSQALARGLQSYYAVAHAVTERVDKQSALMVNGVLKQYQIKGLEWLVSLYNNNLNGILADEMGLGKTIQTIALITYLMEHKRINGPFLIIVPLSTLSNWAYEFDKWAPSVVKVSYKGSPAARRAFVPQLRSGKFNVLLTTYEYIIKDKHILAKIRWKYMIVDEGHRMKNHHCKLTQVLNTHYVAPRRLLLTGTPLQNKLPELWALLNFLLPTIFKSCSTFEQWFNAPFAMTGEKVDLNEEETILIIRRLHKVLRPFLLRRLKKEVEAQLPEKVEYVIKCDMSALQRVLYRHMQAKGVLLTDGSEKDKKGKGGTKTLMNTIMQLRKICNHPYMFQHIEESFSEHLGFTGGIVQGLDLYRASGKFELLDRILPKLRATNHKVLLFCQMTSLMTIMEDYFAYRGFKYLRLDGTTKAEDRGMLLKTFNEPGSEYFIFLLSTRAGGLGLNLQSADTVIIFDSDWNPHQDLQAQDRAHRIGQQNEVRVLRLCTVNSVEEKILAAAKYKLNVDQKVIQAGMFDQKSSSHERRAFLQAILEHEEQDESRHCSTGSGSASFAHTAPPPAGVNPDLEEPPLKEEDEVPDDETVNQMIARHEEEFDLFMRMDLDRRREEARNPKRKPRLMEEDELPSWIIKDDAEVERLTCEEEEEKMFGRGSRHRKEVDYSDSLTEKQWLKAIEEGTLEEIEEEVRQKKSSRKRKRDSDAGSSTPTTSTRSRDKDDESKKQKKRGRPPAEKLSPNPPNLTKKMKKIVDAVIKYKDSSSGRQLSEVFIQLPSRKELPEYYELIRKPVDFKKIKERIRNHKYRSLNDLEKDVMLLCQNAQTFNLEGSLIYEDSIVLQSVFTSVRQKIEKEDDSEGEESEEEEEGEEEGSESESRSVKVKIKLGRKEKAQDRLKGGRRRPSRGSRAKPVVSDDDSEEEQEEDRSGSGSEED

Row | Compound | IC50 (FL-SMARCA4; [2]) | IC50 [1, 3] | IC50 (FL-SMARCA4; [4]) | IC50 [1, 5] | further results
1 | O=C(Nc1cc(F)c(=O)n(CCF)c1)N1CCC(Cl)=C(Cl)C1 [Compound 60a] | 46.7 µM | 14.3 µM | – | – | –
2 | O=C(Nc1cc(F)c(=O)n(CC(F)F)c1)c1cc(C#Cc2ccncc2)cs1 [Compound 23c] | – | – | – | – | IC50 (FL-SMARCA4; [6]): 0.219 µM; IC50 [1, 7]: 0.173 µM
3 | O=C(Nc1cc(F)c(=O)n(CCF)c1)c1cc2n(n1)CCNC2=O [Compound 64a] | > 50 µM | > 50 µM | – | – | –
4 | CN1CCC(C#Cc2cc(C(=O)Nc3cc(F)c(=O)n(CC(F)F)c3)sc2Cl)CC1 [Compound 29c] | – | – | – | – | IC50 (FL-SMARCA4; [6]): 41.4 µM; IC50 [1, 7]: 25.4 µM
5 | O=C(Nc1cc(F)c(=O)n(CCF)c1)c1cc(Cl)c(CO)s1 [Compound 284] | – | – | 30.6 µM | 3.21 µM | –
6 | O=C(Nc1cc(F)c(=O)n(CCF)c1)c1cc(Cl)n[nH]1 [Compound 155] | – | – | 0.529 µM | 0.163 µM | –
7 | CCC(CC)N1CC(C(=O)Nc2cc(Cl)c(=O)n(C)c2)CC1=O (stereo not shown) [Compound 12a] | > 50 µM | > 50 µM | – | – | –
8 | O=C(Nc1cc(F)c(=O)n(CC(F)F)c1)c1cc(CC(F)(F)F)c(Cl)s1 [Compound 24c] | – | – | – | – | IC50 (FL-SMARCA4; [6]): 38.7 µM; IC50 [1, 7]: 11.3 µM
9 | CN1C(=O)CCC1C(=O)Nc1cc(F)c(=O)n(CCF)c1 (stereo not shown) [Compound 50a] | > 50 µM | > 50 µM | – | – | –
10 | CCn1cc(NC(=O)C(=O)c2ccc(Cl)s2)ccc1=O [Compound 1d] | – | – | – | – | IC50 (FL-SMARCA4; FL-SMARCA4 IC50): > 50 µM; IC50 [1, 8]: > 50 µM
11 | O=C(Nc1cc(F)c(=O)n(CCF)c1)c1csc(NC2CCCC2)n1 [Compound 201] | – | – | > 50 µM | > 50 µM | –
12 | COc1ncc(C(=O)Nc2cc(F)c(=O)n(CC(F)F)c2)cc1F [Compound 42d] | – | – | – | – | IC50 (FL-SMARCA4; FL-SMARCA4 IC50): > 50 µM; IC50 [1, 8]: 27.6 µM
13 | Cn1cnc(-c2cc(NC(=O)c3sc(C(F)(F)F)cc3Cl)cn(CC(F)F)c2=O)c1 [Compound 27c] | – | – | – | – | IC50 (FL-SMARCA4; [6]): > 50 µM; IC50 [1, 7]: > 50 µM
14 | COc1cc(Cl)c(Cl)cc1C(=O)Nc1cc(F)c(=O)n(CC(F)F)c1 [Compound 40d] | – | – | – | – | IC50 (FL-SMARCA4; FL-SMARCA4 IC50): > 50 µM; IC50 [1, 8]: > 50 µM
15 | CN1CC(C(=O)Nc2cc(F)c(=O)n(CCF)c2)CCC1=O (stereo not shown) [Compound 49a] | > 50 µM | > 50 µM | – | – | –
16 | NC(=O)c1ccc(C(=O)Nc2cc(F)c(=O)n(CCF)c2)s1 [Compound 303] | – | – | > 50 µM | > 50 µM | –
17 | CC(C)COc1ncccc1C(=O)Nc1cc(Cl)c(=O)n(C)c1 [Compound 2a] | > 50 µM | > 50 µM | – | – | –
18 | Cn1c(C(=O)Nc2cc(F)c(=O)n(CC(F)(F)F)c2)cnc1Cl [Compound 212] | – | – | > 50 µM | 8.52 µM | –
19 | O=C(Nc1cc(F)c(=O)n(CC(F)F)c1)c1cc(C#Cc2cn3ccccc3n2)c(Cl)s1 [Compound 6c] | – | – | – | – | IC50 (FL-SMARCA4; [6]): 0.679 µM; IC50 [1, 7]: 0.901 µM
20 | CNCCn1cc(NC(=O)c2cc(F)c(Cl)s2)cc(F)c1=O [Compound 52c] | – | – | – | – | IC50 (FL-SMARCA4; [6]): > 50 µM; IC50 [1, 7]: > 50 µM

Now from value to compound, other results behind:

Row | IC50 (FL-SMARCA4; [2]) | IC50 [1, 3] | IC50 (FL-SMARCA4; [4]) | IC50 [1, 5] | Compound | further results
21 | > 50 µM | > 50 µM | – | – | CCn1cc(NC(=O)c2cncc(Cl)c2)ccc1=O [Compound 17a] | –
22 | – | – | 8.48 µM | 6.83 µM | CCn1cc(NC(=O)c2cc(C#CCN)c(Cl)s2)ccc1=O [Compound 292] | –
23 | > 50 µM | > 50 µM | – | – | CCn1cc(NC(=O)c2ccccn2)ccc1=O [Compound 30a] | –
24 | – | – | > 50 µM | > 50 µM | CCn1cc(C(=O)Nc2cc(Cl)c(Cl)s2)ccc1=O [Compound 79] | –
25 | – | – | > 50 µM | > 50 µM | CCc1cc(NC(=O)c2cc(Cl)c(Cl)s2)cn(C)c1=O [Compound 185] | –
26 | > 50 µM | > 50 µM | – | – | CCn1cc(NC(=O)c2ccc(C(F)(F)F)cn2)ccc1=O [Compound 58a] | –
27 | – | – | > 50 µM | > 50 µM | CCn1cc(NC(=O)c2cc(Cl)c(Cl)s2)cc(C(C)C)c1=O [Compound 111] | –
28 | > 50 µM | > 50 µM | – | – | CCn1cc(NC(=O)c2cn3ccccc3n2)ccc1=O [Compound 20a] | –
29 | – | – | > 50 µM | 33.2 µM | CCn1cc(NC(=O)c2cc(Cl)c(-c3ncco3)s2)ccc1=O [Compound 283] | –
30 | – | – | 45.1 µM | 7.46 µM | CNc1c(C(=O)Nc2cc(F)c(=O)n(CC(F)F)c2)sc(Cl)c1Cl [Compound 335] | –
31 | – | – | > 50 µM | 20.8 µM | O=C(Nc1ccc(=O)n(CCO)c1)c1cc(Cl)c(Cl)s1 [Compound 83] | –
32 | – | – | > 50 µM | > 50 µM | Cc1nc(-c2cc(C(=O)Nc3ccc(=O)n(C)c3)n(C)c2)cs1 [Compound 7] | –
33 | – | – | > 50 µM | 46.4 µM | CCn1cc(NC(=O)c2cc(I)cn2C)ccc1=O [Compound 51] | –
34 | > 50 µM | > 50 µM | – | – | CCn1cc(NC(=O)c2sc3ccccc3c2C)ccc1=O [Compound 40a] | –
35 | – | – | 11.6 µM | 1.2 µM | CCn1cc(NC(=O)c2cc(Cl)c(Cl)s2)cc(C#N)c1=O [Compound 123] | –
